Here are results for 22 compounds from patent US20100076015A1, “Aminopyridine Derivatives” (VANTIA LIMITED, priority 2008, published 2010).

pIC50: −log10 of the molar value.

This experiment deals with T1, Human KLK1 (Homo sapiens, UniProt P06870).
T1 construct: purchased Callbiochem (Calbiochem)
T1 sequence (P06870 25-262): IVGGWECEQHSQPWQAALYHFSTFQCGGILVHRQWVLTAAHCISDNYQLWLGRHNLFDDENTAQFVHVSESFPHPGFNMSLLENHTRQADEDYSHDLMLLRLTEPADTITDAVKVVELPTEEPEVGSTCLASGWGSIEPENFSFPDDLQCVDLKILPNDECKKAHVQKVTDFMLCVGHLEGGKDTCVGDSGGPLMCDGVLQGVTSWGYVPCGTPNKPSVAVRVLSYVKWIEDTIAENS
The experiment is described as follows: Determination of the IC50 for KLK1 (fluorogenic substrate H-DVal-Leu-Arg-AFC). Format: biochemical. The following applies: 37° C. The procedure, abridged: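 IC50 values reflect residual human KLK1 activity, read as initial rate from optical absorbance change at 410 nm. Incubations ran at 37° C with H-DVal-Leu-Arg-AFC as substrate across a compound concentration series.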
Regarding `CN(C)[C@@H](C(=O)N[C@@H](Cc1ccc(F)c(F)c1)C(=O)NCc1ccc(N)nc1)C(C)(C)C` [Example 179, (R)—N-[(S)-1-[(6-Amino-pyridin-3-ylmethyl)-carbamoyl]-2-(3,4-difluoro-phenyl)-ethyl]-2-dimethylamino-3,3-dimethyl-butyramide], the pIC50 is 8.52. As for `CCCN(C)[C@@H](C)C(=O)N[C@@H](CC1CCCCC1)C(=O)NCc1ccc(N)nc1` [Example 383, (S)—N-{(S)-1-[(6-Amino-pyridin-3-ylmethyl)-carbamoyl]-2-cyclohexyl-ethyl}-2-(methyl-propyl-amino)-propionamide], the figure is 7.34; as for `CCC(C)[C@@H](NS(C)(=O)=O)C(=O)N[C@@H](Cc1ccc(Cl)c(Cl)c1)C(=O)NCc1ccc(N)nc1` (stereo partly drawn) [Example 211, (R)-2-Methanesulfonylamino-3-methyl-pentanoic acid [(S)-1-[(6-amino-pyridin-3-ylmethyl)-carbamoyl]-2-(3,4-dichloro-phenyl)-ethyl]-amide], 9.54; as for `CCC(C)[C@@H](N)C(=O)N[C@@H](Cc1ccc(F)cc1)C(=O)NCc1ccc(N)nc1` (stereo partly drawn) [Example 33, (R)-2-Amino-3-methyl-pentanoic acid [(S)-1-[(6-amino-pyridin-3-ylmethyl)-carbamoyl]-2-(4-fluoro-phenyl)-ethyl]-amide], 8.28. As for `Cc1cc(C)c(C(=O)N[C@@H](Cc2cccc3ccccc23)C(=O)NCc2ccc(N)nc2C)[nH]1` [Example 278, 3,5-Dimethyl-1H-pyrrole-2-carboxylic acid {(S)-1-[(6-amino-2-methyl-pyridin-3-ylmethyl)-carbamoyl]-2-naphthalen-1-yl-ethyl}-amide], the figure is 8.49; as for `CC(C)(C)[C@H](N)C(=O)N[C@@H](C(=O)NCc1ccc(N)nc1)C(C1CCCCC1)C1CCCCC1` [Example 217, (S)-2-Amino-N-{(R)-1-[(6-amino-pyridin-3-ylmethyl)-carbamoyl]-2,2-dicyclohexyl-ethyl}-3,3-dimethyl-butyramide], 7.53; as for `C[C@@H](C(=O)N[C@@H](Cc1ccc(F)cc1)C(=O)NCc1ccc(N)nc1)N1CCCCC1` [Example 375, (S)—N-[(S)-1-[(6-Amino-pyridin-3-ylmethyl)-carbamoyl]-2-(4-fluoro-phenyl)-ethyl]-2-piperidin-1-yl-propionamide], 8.31. As for `CC(C)N(C)[C@@H](C)C(=O)N[C@@H](C(=O)NCc1ccc(N)nc1)C(C1CCCCC1)C1CCCCC1` [Example 433, (S)—N-{(R)-1-[(6-Amino-pyridin-3-ylmethyl)-carbamoyl]-2,2-dicyclohexyl-ethyl}-2-(isopropyl-methyl-amino)-propionamide], the figure is 7.00; as for `CN[C@H](Cc1ccccc1)C(=O)N[C@@H](Cc1ccc(F)c(F)c1)C(=O)NCc1ccc(N)nc1` [Example 81, (R)—N-[(S)-1-[(6-Amino-pyridin-3-ylmethyl)carbamoyl]-2-(3,4-difluoro-phenyl)-ethyl]-2-methylamino-3-phenyl-propionamide], 8.30. `C[C@H](C(=O)N[C@@H](Cc1ccc(C(F)(F)F)cc1)C(=O)NCc1ccc(N)nc1)N1CCCCC1` [Example 421, (R)—N-[(S)-1-[(6-Amino-pyridin-3-ylmethyl)-carbamoyl]-2-(4-trifluoromethyl-phenyl)-ethyl]-2-piperidin-1-yl-propionamide] gave a pIC50 of 7.17.

`CCN(CC)CC(=O)N[C@@H](Cc1ccc(F)cc1)C(=O)NCc1ccc(N)nc1` [Example 380, (S)—N-(6-Amino-pyridin-3-ylmethyl)-2-(2-diethylamino-acetylamino)-3-(4-fluoro-phenyl)-propionamide] showed a negative logarithm of the IC50 (pIC50) of 7.86. As for `CCC(C)[C@H](NC)C(=O)N[C@@H](C(=O)NCc1ccc(N)nc1)C(C1CCCCC1)C1CCCCC1` (stereo partly drawn) [Example 219, (S)-3-Methyl-2-methylamino-pentanoic acid {(R)-1-[(6-amino-pyridin-3-ylmethyl)-carbamoyl]-2,2-dicyclohexyl-ethyl}-amide], the figure is 8.44. As for `Nc1ccc(CNC(=O)[C@H](Cc2ccc(Cl)c(Cl)c2)NC(=O)[C@H]2CCCN2Cc2ccccc2)cn1` [Example 141, (R)-1-Benzyl-pyrrolidine-2-carboxylic acid [(S)-1-[(6-amino-pyridin-3-ylmethyl)-carbamoyl]-2-(3,4-dichloro-phenyl)-ethyl]-amide], the figure is 7.86. As for `Cc1nc(N)ccc1CNC(=O)[C@H](Cc1ccc(F)c(F)c1)NC(=O)CN1CCCCC1` [Example 430, (S)—N-(6-Amino-2-methyl-pyridin-3-ylmethyl)-3-(3,4-difluoro-phenyl)-2-(2-piperidin-1-yl-acetylamino)-propionamide], the figure is 7.22; as for `Cc1nc(N)ccc1CNC(=O)[C@H](Cc1ccc(Cl)c(Cl)c1)NC(=O)[C@H](N)Cc1ccc(F)cc1` [Example 194, (R)-2-Amino-N-[(S)-1-[(6-amino-2-methyl-pyridin-3-ylmethyl)-carbamoyl]-2-(3,4-dichloro-phenyl)-ethyl]-3-(4-fluoro-phenyl)-propionamide], 8.29; as for `CN(CC(=O)N[C@@H](Cc1ccc(F)c(F)c1)C(=O)NCc1ccc(N)nc1)c1ccccc1` [Example 174, (S)—N-(6-Amino-pyridin-3-ylmethyl)-3-(3,4-difluoro-phenyl)-2-[2-(methyl-phenyl-amino)-acetylamino]-propionamide], 7.05. Consider `COc1ccc2[nH]c(C(=O)N[C@@H](Cc3cccc(C)c3)C(=O)NCc3ccc(N)nc3)cc2c1` [Example 318, 5-Methoxy-1H-indole-2-carboxylic acid {(S)-1-[(6-amino-pyridin-3-ylmethyl)-carbamoyl]-2-m-tolyl-ethyl}-amide], for which the pIC50 is 7.92. As for `COc1ccc(C[C@H](NC(=O)[C@H]2CCCN2C)C(=O)NCc2ccc(N)nc2)cc1` [Example 100, (R)-1-Methyl-pyrrolidine-2-carboxylic acid [(S)-1-[(6-amino-pyridin-3-ylmethyl)-carbamoyl]-2-(4-methoxy-phenyl)-ethyl]-amide], the figure is 7.07. As for `Cc1nc(N)ccc1CNC(=O)[C@@H](Cc1ccc(Cl)c(Cl)c1)NC(=O)[C@H]1CSCN1` [Example 191, (S)-Thiazolidine-4-carboxylic acid [(R)-1-[(6-amino-2-methyl-pyridin-3-ylmethyl)-carbamoyl]-2-(3,4-dichloro-phenyl)-ethyl]-amide], the figure is 7.48; as for `Cc1ccc(-c2ccc(C(=O)N[C@@H](Cc3ccc(Cl)c(Cl)c3)C(=O)NCc3ccc(N)nc3)[nH]2)cc1` [Example 296, 5-p-Tolyl-1H-pyrrole-2-carboxylic acid [(S)-1-[(6-amino-pyridin-3-ylmethyl)-carbamoyl]-2-(3,4-dichloro-phenyl)-ethyl]-amide], 7.39; as for `Cc1cc(C)c(C(=O)N[C@@H](Cc2ccc(O)cc2)C(=O)NCc2ccc(N)nc2)[nH]1` [Example 247, 3,5-Dimethyl-1H-pyrrole-2-carboxylic acid [(S)-1-[(6-amino-pyridin-3-ylmethyl)-carbamoyl]-2-(4-hydroxy-phenyl)-ethyl]-amide], 6.70.

With `CN(CC(=O)N[C@@H](Cc1ccc(F)c(F)c1)C(=O)NCc1ccc(N)nc1)Cc1ccc(Cl)cc1` [Example 163, (S)—N-(6-Amino-pyridin-3-ylmethyl)-2-{2-[(4-chloro-benzyl)-methyl-amino]-acetylamino}-3-(3,4-difluoro-phenyl)-propionamide], the pIC50 is 7.25.

One may read the pIC50 as the IC50 on a negative log10 scale, so that one unit is a factor of ten.
